Values of other authors in patent US7604823B2, “Synergistic HIV/AIDS and/or immune disease phyto-nutraceutical composition” (priority 2006, dated 2009).
Entries after “also recorded” stand apart in the source; their conditions may differ.

What was measured:
HIV-1 PR = HIV-1 PR (Human immunodeficiency virus type 1 group M subtype B, UniProt P04585)
[1] = system: HIV-1 LTR-directed gene expression; settings: concentrations that have minor effects on cells
[2] = system: cells either acutely or chronically infected with HIV-1; settings: cells acutely or chronically infected with HIV-1
HIV [3] = settings: after administration, no antiretroviral medications
HIV-1 [4] = system: HIV-1
[5] = system: HIV-1-infected cells (CEM/LAV-1)
[6] = target: HIV-1 reverse transcriptase (Human immunodeficiency virus type 1 group M subtype B, UniProt P04585)
[7] = system: bacterial resistance mechanism (multidrug pump); settings: in the presence of 5′-MHC
HIV [8] = settings: human, in vivo
HIV-1 [9] = settings: prolonged period
HIV [10] = system: HIV

C/C(=C\CC[C@@H](C)[C@H]1CC(=O)[C@@]2(C)C3=C(C(=O)C[C@]12C)[C@@]1(C)CC[C@H](O)C(C)(C)[C@@H]1C[C@@H]3O)C(=O)O [Ganoderic acid beta]
inhibition of HIV-1 protease (HIV-1 PR): significant

CC1(C)CCC2=C(O1)c1ccccc1C(=O)C2=O [beta-lapachone]
inhibition of HIV-1 LTR-directed gene expression [1]: potent and selective inhibitor
p24 antigen production [2]: inhibited

C=C1CC[C@@H]2[C@](C)(CO)[C@H](O)CC[C@@]2(C)[C@@H]1C/C=C1/C(=O)OC[C@H]1O [andrographolide]
mean CD4(+) lymphocyte level of HIV subjects (HIV [3]): significant rise

C[C@H](CC[C@H](O)[C@](C)(O)CO)[C@H]1CC[C@@]2(C)C3=CC[C@H]4C(C)(C)C(=O)CC[C@]4(C)C3=CC[C@]12C [ganodermanontriol]
activity as anti-HIV-1 agents (HIV-1 [4]): active
inhibition of HIV-1 protease (HIV-1 PR): significant

C[C@H](CCC=C(CO)CO)[C@H]1C[C@H](O)[C@@]2(C)C3=CC[C@H]4C(C)(C)C(=O)CC[C@]4(C)C3=CC[C@]12C [ganoderiol B]
inhibition of HIV-1 protease (HIV-1 PR): moderately active

C=CCSSCC=C [Allyl disulfide]
cell proliferation of HIV-1-infected cells [5]: strongly depressed

CC(=O)O[C@@H]1C(=O)C2=C(C(=O)C[C@H]3C(C)(C)[C@@H](O)CC[C@]23C)[C@]2(C)C(=O)C[C@H]([C@H](C)CC(=O)CC(C)C(=O)O)[C@@]12C (stereo partly drawn) [ganoderic acid H]
inhibition of HIV-1 protease (HIV-1 PR): moderately active

C[C@H](CCC=C(CO)CO)[C@H]1CC[C@@]2(C)C3=CC[C@H]4C(C)(C)C(=O)CC[C@]4(C)C3=CC[C@]12C [Ganoderiol F]
activity as anti-HIV-1 agents (HIV-1 [4]): active

COc1ccc2cc3[n+](cc2c1OC)CCc1cc2c(cc1-3)OCO2 [Berberine]
inhibition of HIV-1 reverse transcriptase [6]: inhibits

COc1cc([C@H]2Oc3cc(-c4cc(=O)c5c(O)cc(O)cc5o4)cc(OC)c3O[C@@H]2CO)ccc1O (racemic) [5′-MHC, 5′-methoxyhydnocarpin]
accumulation of berberine in the cells [7]: strong increase

O=c1[nH]cnc2c1ncn2[C@H]1CC[C@@H](CO)O1 [ddI, didanosine]
mean change of CD4 cells/mm3 (HIV [8]): decrease

CC(=O)OC1C(=O)C2=C(C(=O)CC3C(C)(C)[C@@H](O)CC[C@]23C)[C@]2(C)[C@H](O)C[C@H]([C@H](C)CC(=O)CC(C)C(=O)O)[C@@]12C (stereo partly drawn) [ganoderic acid alpha]
inhibition of HIV-1 protease (HIV-1 PR): moderately active

CC(CC(=O)C[C@@H](C)[C@H]1C[C@H](O)[C@@]2(C)C3=C(C(=O)C[C@]12C)[C@@]1(C)CCC(=O)C(C)(C)[C@@H]1CC3)C(=O)O (stereo partly drawn) [ganolucidic acid A]
inhibition of HIV-1 protease (HIV-1 PR): significant

Cc1cn([C@H]2C[C@H](N=[N+]=[N-])[C@@H](CO)O2)c(=O)[nH]c1=O [ZDV, zidovudine]
CD4+ T cell counts (HIV-1 [9]): decreased

CC(CC(=O)C[C@@H](C)[C@H]1CC(=O)[C@@]2(C)C3=C(C(=O)C[C@]12C)[C@@]1(C)CC[C@H](O)C(C)(C)[C@@H]1C[C@@H]3O)C(=O)O (stereo partly drawn) [ganoderic acid B]
inhibition of HIV-1 protease (HIV-1 PR): moderately active

C[C@H](CC[C@H](O)C(C)(C)O)[C@H]1CC[C@@]2(C)C3=CC[C@H]4C(C)(C)C(=O)CC[C@]4(C)C3=CC[C@]12C [ganodermanondiol]
inhibition of HIV-1 protease (HIV-1 PR): significant

CO[C@@H]1C=C2[C@@H]3CC[C@H]([C@H](C)C=C[C@H](C)C(C)C)[C@@]3(C)CC[C@@H]2[C@@]2(C)CC[C@H](O)C[C@]12O [3 beta-5 alpha-dihydroxy-6beta-methoxyergosta-7,22-diene]
inhibition of HIV-1 protease (HIV-1 PR): moderately active

C[C@H](CC[C@H](O)C(C)(O)CO)[C@H]1CC[C@@]2(C)C3=CC[C@H]4C(C)(C)[C@@H](O)CC[C@]4(C)C3=CC[C@]12C (stereo partly drawn) [ganoderiol A]
inhibition of HIV-1 protease (HIV-1 PR): moderately active

lentinan
tolerability (HIV [10]; HIV-positive patients): good tolerability
CD4 cells (HIV [10]; human, in vivo): trend toward increases

C=CCO [allyl alcohol]
cell proliferation of HIV-1-infected cells [5]: strongly depressed; also recorded: completely inhibited

C[C@H](CC(=O)C[C@@H](C)[C@H]1CC(=O)[C@@]2(C)C3=C(C(=O)C[C@]12C)[C@@]1(C)CCC(=O)C(C)(C)[C@@H]1C[C@@H]3O)C(=O)O [ganoderic acid C1]
inhibition of HIV-1 protease (HIV-1 PR): moderately active
